The values below come from patent US20240116985A1, “STAPLED PEPTIDES AND METHODS THEREOF” (priority 2020, published 2024).

Structures are written as SMILES. Converted amounts (≈) assume the structure as drawn. Like-named read-outs stand apart in the source and are kept apart here.

The nature of series [1]: Solubility in PBS. It is filed as physicochemical. In outline:
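Read-out is the HPLC peak area of the supernatant from ultracentrifuged PBS solution, scaled against a 50 μM peptide DMSO injection; value reported as [(PBS area)/(DMSO area)]*50 uM.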

In series [2] the target is T1, full-length beta-Catenin (Uniprot ID P35222) (Homo sapiens, UniProt P35222).
T1 construct: 10 nM full-length beta-Catenin (Uniprot ID P35222)
T1 sequence (P35222 1-781): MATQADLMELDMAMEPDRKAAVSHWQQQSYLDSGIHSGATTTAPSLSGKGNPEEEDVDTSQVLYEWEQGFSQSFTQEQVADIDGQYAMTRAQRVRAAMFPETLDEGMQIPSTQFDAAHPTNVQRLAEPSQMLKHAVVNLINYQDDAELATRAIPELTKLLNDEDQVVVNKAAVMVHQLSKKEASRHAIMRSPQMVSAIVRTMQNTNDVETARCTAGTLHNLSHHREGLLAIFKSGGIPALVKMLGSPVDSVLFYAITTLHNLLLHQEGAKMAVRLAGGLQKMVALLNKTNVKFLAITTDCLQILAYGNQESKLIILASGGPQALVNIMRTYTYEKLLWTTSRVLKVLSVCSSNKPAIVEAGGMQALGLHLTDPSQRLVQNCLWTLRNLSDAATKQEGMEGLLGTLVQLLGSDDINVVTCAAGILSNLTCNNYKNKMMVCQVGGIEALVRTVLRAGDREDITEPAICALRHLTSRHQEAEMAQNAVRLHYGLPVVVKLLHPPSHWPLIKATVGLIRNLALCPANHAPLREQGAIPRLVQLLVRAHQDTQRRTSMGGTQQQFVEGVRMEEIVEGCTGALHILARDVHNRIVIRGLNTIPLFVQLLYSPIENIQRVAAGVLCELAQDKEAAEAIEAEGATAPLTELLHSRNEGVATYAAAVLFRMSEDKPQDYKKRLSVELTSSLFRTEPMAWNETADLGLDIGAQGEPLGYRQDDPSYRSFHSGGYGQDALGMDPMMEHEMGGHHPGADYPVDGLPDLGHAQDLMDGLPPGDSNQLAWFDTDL
In words: Fluorescence polarization IC50 (beta-catenin / 5FAM-TCF4 10-53 competition). It is filed as binding. On the technique in general: In fluorescence polarisation assays a small probe gives low polarisation when free and higher when bound to something large.

Series [3] is described as follows: CHI Log D procedure. The series is classed as physicochemical. To be noted: for CHI Log D: pH 7.4; for chromatographic logD: pH 7.4, CHI Log D.
Where [4] appears, read: fluorescence polarization, read-out: beta-Catenin FP IC50.

By Solubility is commonly meant how much of the substance goes into solution per volume. By chromatographic logD is commonly meant a lipophilicity value derived from retention on a column. Higher therefore signals higher lipophilicity.

Consider `CC[C@H](C)[C@@H]1NC(=O)[C@H](CC(=O)O)NC(=O)[C@]2(CC=CCCCC3(CCCC=CCCCCCC[C@@](C)(C(=O)N[C@@H](Cc4ccccc4)C(=O)N[C@@H](Cc4csc5ccccc45)C(=O)N[C@@H](CCC(N)=O)C(N)=O)NC(=O)[C@H](CC(N)=O)NC(=O)[C@H](Cc4ccccc4)NC(=O)[C@H](C)NC(=O)[C@H](C)NC(=O)[C@H](CC(=O)O)NC(=O)[C@H](CC(=O)O)NC3=O)NC1=O)CCCN2C(C)=O` (stereo partly drawn) [I-468, Ac-PL3-Asp-Ile-B5-Asp-Asp-Ala-Ala-Phe-Asn-S8-Phe-BztA-Gln-NH2], for which, in series [1], the “Solubility” value came to 41 µM (≈ 76.1 µg/mL). In addition, the IC50 in series [2] (setting [4]) and in series [2] (read-out: FP EC50) was 27 nM each time. In addition, in series [3], the “CHI Log D” value was determined as 2.292.
`CC[C@H](C)[C@@H]1NC(=O)[C@H](CC(=O)O)NC(=O)[C@]2(CC=CCCCC3(CCCC=CCCCCCC[C@@](C)(C(=O)N[C@@H](Cc4ccccc4)C(=O)N[C@@H](Cc4csc5ccccc45)C(=O)N[C@@H](Cc4c[nH]cn4)C(N)=O)NC(=O)[C@H](CCC(N)=O)NC(=O)[C@H](Cc4ccccc4)NC(=O)[C@H](C)NC(=O)[C@H](C)NC(=O)[C@H](CCC(=O)O)NC(=O)[C@H](CC(=O)O)NC3=O)NC1=O)CCCN2C(C)=O` (stereo partly drawn) [I-471, Ac-PL3-Asp-Ile-B5-Asp-Glu-Ala-Ala-Phe-Gln-S8-Phe-BztA-His-NH2]: in series [1] (Solubility (uM)), the Solubility stood at 13 µM (≈ 24.6 µg/mL). Besides, the IC50 in series [2] (setting [4]) worked out at 52 nM. The same compound had a chromatographic logD in series [3] of 2.43.
With `CC[C@H](C)[C@@H]1NC(=O)[C@H](CC(=O)O)NC(=O)[C@]2(CC=CCCCC3(CCCC=CCCCCCC[C@@](C)(C(=O)N[C@@H](Cc4ccccc4)C(=O)N[C@@H](Cc4csc5ccccc45)C(=O)N[C@@H](Cc4c[nH]cn4)C(N)=O)NC(=O)[C@H](CC(N)=O)NC(=O)[C@H](Cc4ccccc4)NC(=O)[C@H](C)NC(=O)[C@H](C)NC(=O)[C@H](CCC(=O)O)NC(=O)[C@H](CC(=O)O)NC3=O)NC1=O)CCCN2C(C)=O` (stereo partly drawn) [I-472, Ac-PL3-Asp-Ile-B5-Asp-Glu-Ala-Ala-Phe-Asn-S8-Phe-BztA-His-NH2], the concentration in solution in series [1] (Solubility (uM)) (Solubility) came to 36 µM (≈ 67.6 µg/mL). Besides, the IC50 in series [2] (setting [4]) came to 62 nM. Also, the chromatographic logD in series [3] was determined as 2.42.
As for `CC[C@@H]1NC(=O)[C@H](CC(=O)O)NC(=O)[C@]2(CC=CCCCC3(CCCC=CCCCCCC[C@@](C)(C(=O)N[C@@H](Cc4ccccc4)C(=O)N[C@@H](Cc4csc5ccccc45)C(=O)N[C@@H](CCC(N)=O)C(N)=O)NC(=O)[C@H](CC(N)=O)NC(=O)[C@H](Cc4ccccc4)NC(=O)[C@H](C)NC(=O)[C@H](C)NC(=O)[C@H](CCC(=O)O)NC(=O)[C@H](CC(=O)O)NC3=O)NC1=O)CCCN2C(C)=O` (stereo partly drawn) [I-473, Ac-PL3-Asp-Abu-B5-Asp-Glu-Ala-Ala-Phe-Asn-S8-Phe-BztA-Gln-NH2], the “Solubility” value in series [1] came to 39 µM (≈ 71.8 µg/mL). The IC50 in series [2] (setting [4]) and in series [2] (read-out: FP EC50) was 121 nM throughout. Also, in series [3], the “CHI Log D” value is 2.076.
For the compound `CC[C@@H]1NC(=O)[C@H](CC(=O)O)NC(=O)[C@]2(CC=CCCCC3(CCCC=CCCCCCC[C@@](C)(C(=O)N[C@@H](Cc4ccccc4)C(=O)N[C@@H](Cc4csc5ccccc45)C(=O)N[C@@H](CCC(N)=O)C(N)=O)NC(=O)[C@H](CC(N)=O)NC(=O)[C@H](Cc4ccccc4)NC(=O)[C@H](C)NC(=O)[C@H](C)NC(=O)[C@H](CCC(=O)O)NC(=O)[C@H](CC(=O)O)NC3=O)NC1=O)CCCN2C(C)=O` (stereo partly drawn) [I-474, Ac-PL3-Asp-Abu-B5-Asp-Glu-Ala-Ala-Phe-Asn-S8-Phe-BztA-Gln-NH2], in series [1], the “Solubility” value was 50 µM (≈ 92.1 µg/mL). Besides, the IC50 in series [2] (setting [4]) and in series [2] (read-out: FP EC50) was 43 nM each time. Further, the “CHI Log D” value in series [3] is given as 2.114.
